{"source": "patent US20230233615A1", "about": "“PHARMACEUTICAL COMPOSITION FOR TREATING ALZHEIMER'S DISEASE” (Gwo Xi Stem Cell Applied Technology Co., Ltd., priority 2022, published 2023)", "key": {"IL-1β": {"test_system": "IL-1β", "test": "Inhibition on NLRP3 by EVs, IL-1β in BV2 microglia cell line", "type": "cell-based", "settings": "BV2 cells, LPS + ATP, 48 hours, 100 mM of mefenamic acid", "protocol": "(§1) In order to investigate anti-inflammatory and NLR family pyrindomain containing 3 (NLRP3) inflammasome inhibitory effects of ADSC-derived EVs, a study was performed using a BV2 microglia cell line (hereinafter referred to as BV2 cells). BV2 cells were initiated with 100 ng/ml of LPS and 5 mM of ATP, and 100 mM of mefenamic acid (a positive control group) or a low dose of ADSC-derived EVs (2×10^5 particles/cell) or a high dose of ADSC-derived EVs (2×10^6 particles/cell) in a humidified environment with 5%CO2 at 37° C. for 48 hours."}, "IL-18": {"test_system": "IL-18", "test": "Inhibition on NLRP3 by EVs, IL-18 in BV2 microglia cell line", "type": "cell-based", "settings": "BV2 cells, LPS + ATP, 48 hours, 100 mM of mefenamic acid", "protocol": "as §1"}}, "data": [{"molecule": "Cc1cccc(Nc2ccccc2C(=O)O)c1C", "note": "[mefenamic acid]", "values": [{"measurement": "inhibited expression of IL-1β (compared to PBS group)", "setting": "IL-1β; first stated set", "value": 35.4, "unit": "%"}, {"measurement": "inhibited expression of IL-1β (compared to PBS group)", "setting": "IL-1β; second stated set", "value": 69.5, "unit": "%"}, {"measurement": "inhibited expression of IL-18 (compared to PBS group)", "setting": "IL-18; first stated set", "value": 29.2, "unit": "%"}, {"measurement": "expression of IL-18 (compared to PBS group)", "setting": "IL-18; second stated set", "value": "no significant change"}]}]}
